Where “and” joins values, the source holds several entries; their conditions need not be identical. Identical values can stand only once.
What was measured:
SfurOBP11 = SfurOBP11 (Sogatella furcifera, UniProt V5T6E3); experiment: biochemical; format: binding
How it was run: (§1)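 K1-NPN came from titrating 2.0 µM protein (50 mM Tris-HCl, pH 7.4) with 1-NPN. Odorants at 2-20 µM then competed against 2.0 µM protein plus 2.0 µM 1-NPN for 2 min, with excitation at 337 nm and emission recorded over 390-490 nm. IC50 values were converted to Ki via Ki = IC50/(1 + [1-NPN]/K1-NPN).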

SfurOBP2 = SfurOBP2 (Sogatella furcifera, UniProt V5T759); experiment: biochemical; format: binding
How it was run: as §1

SfurOBP3 = SfurOBP3 (Sogatella furcifera, UniProt V5T818); experiment: biochemical; format: binding; conditions: for Fluorescence competitive binding assay, fluorescence intensity: OBP3, three replicate columns
How it was run: as §1

SfurOBP1 = SfurOBP1 (Sogatella furcifera, UniProt V5T8N5); experiment: biochemical; format: binding; conditions: for Fluorescence competitive binding assay, fluorescence intensity: OBP1, three replicate columns
How it was run: as §1

S. furcifera adults = experiment: Y-tube olfactometer behavioral trials; format: in vivo, Sogatella furcifera; conditions: odorant 50 µL/L vs hexane; adults
How it was run: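 Single S. furcifera adults (2 days post-emergence, starved 0.5 h) chose between odorant (100 µL of 50 µL/L on filter paper) and hexane control in a glass Y-tube, charcoal-filtered humidified air 300 mL/min per arm, 25 ± 1 °C, 50% RH. Choice scored if insect passed half an arm and stayed >1 min within 10 min; 45 insects per compound, chi-squared test.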

Sequence of SfurOBP1 (V5T8N5 entry or part of it): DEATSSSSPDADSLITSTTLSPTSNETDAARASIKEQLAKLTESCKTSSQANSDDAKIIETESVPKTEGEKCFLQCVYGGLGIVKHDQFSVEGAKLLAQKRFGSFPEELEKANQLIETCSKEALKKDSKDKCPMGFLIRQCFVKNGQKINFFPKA
Sequence of SfurOBP11 (V5T6E3 entry or part of it): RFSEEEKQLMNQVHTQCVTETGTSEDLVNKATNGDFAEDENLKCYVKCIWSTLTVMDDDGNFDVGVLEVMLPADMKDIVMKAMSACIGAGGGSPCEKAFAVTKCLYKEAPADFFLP
Sequence of SfurOBP3 (V5T818 entry or part of it): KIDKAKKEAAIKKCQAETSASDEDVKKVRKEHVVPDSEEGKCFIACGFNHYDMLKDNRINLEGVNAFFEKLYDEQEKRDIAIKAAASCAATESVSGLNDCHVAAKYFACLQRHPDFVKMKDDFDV
Sequence of SfurOBP2 (V5T759 entry or part of it): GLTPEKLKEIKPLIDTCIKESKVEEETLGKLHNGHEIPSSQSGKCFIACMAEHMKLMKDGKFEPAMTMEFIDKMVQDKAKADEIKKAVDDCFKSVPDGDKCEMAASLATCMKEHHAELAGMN

O=Cc1ccccc1 [benzaldehyde]
IC50 (SfurOBP11): > 20 µM
Fluorescence intensity, fluorescence competitive binding assay, OBP11 (SfurOBP11; ligand concentration 2, replicate 1): 25700
Fluorescence intensity, fluorescence competitive binding assay, OBP11 (SfurOBP11; ligand concentration 2, replicate 2): 26420
Fluorescence intensity, fluorescence competitive binding assay, OBP11 (SfurOBP11; ligand concentration 2, replicate 3): 26489
Fluorescence intensity, fluorescence competitive binding assay, OBP11 (SfurOBP11; ligand concentration 4, replicate 1): 25103
Fluorescence intensity, fluorescence competitive binding assay, OBP11 (SfurOBP11; ligand concentration 4, replicate 2): 25939
Fluorescence intensity, fluorescence competitive binding assay, OBP11 (SfurOBP11; ligand concentration 4, replicate 3): 26917
Fluorescence intensity, fluorescence competitive binding assay, OBP11 (SfurOBP11; ligand concentration 6, replicate 1): 24540
Fluorescence intensity, fluorescence competitive binding assay, OBP11 (SfurOBP11; ligand concentration 6, replicate 2): 24263
Fluorescence intensity, fluorescence competitive binding assay, OBP11 (SfurOBP11; ligand concentration 6, replicate 3): 26004
Fluorescence intensity, fluorescence competitive binding assay, OBP11 (SfurOBP11; ligand concentration 8, replicate 1): 24810
Fluorescence intensity, fluorescence competitive binding assay, OBP11 (SfurOBP11; ligand concentration 8, replicate 2): 23717
Fluorescence intensity, fluorescence competitive binding assay, OBP11 (SfurOBP11; ligand concentration 8, replicate 3): 25921
Fluorescence intensity, fluorescence competitive binding assay, OBP11 (SfurOBP11; ligand concentration 10, replicate 1): 21750
Fluorescence intensity, fluorescence competitive binding assay, OBP11 (SfurOBP11; ligand concentration 10, replicate 2): 22655
Fluorescence intensity, fluorescence competitive binding assay, OBP11 (SfurOBP11; ligand concentration 10, replicate 3): 24544
Fluorescence intensity, fluorescence competitive binding assay, OBP11 (SfurOBP11; ligand concentration 12, replicate 1): 22377
Fluorescence intensity, fluorescence competitive binding assay, OBP11 (SfurOBP11; ligand concentration 12, replicate 2): 22204
Fluorescence intensity, fluorescence competitive binding assay, OBP11 (SfurOBP11; ligand concentration 12, replicate 3): 22549
Fluorescence intensity, fluorescence competitive binding assay, OBP11 (SfurOBP11; ligand concentration 14, replicate 1): 20889
Fluorescence intensity, fluorescence competitive binding assay, OBP11 (SfurOBP11; ligand concentration 14, replicate 2): 20823
Fluorescence intensity, fluorescence competitive binding assay, OBP11 (SfurOBP11; ligand concentration 14, replicate 3): 20954
Fluorescence intensity, fluorescence competitive binding assay, OBP11 (SfurOBP11; ligand concentration 16, replicate 1): 18305
Fluorescence intensity, fluorescence competitive binding assay, OBP11 (SfurOBP11; ligand concentration 16, replicate 2): 18429
Fluorescence intensity, fluorescence competitive binding assay, OBP11 (SfurOBP11; ligand concentration 16, replicate 3): 20008
Fluorescence intensity, fluorescence competitive binding assay, OBP11 (SfurOBP11; ligand concentration 18, replicate 1): 18084
Fluorescence intensity, fluorescence competitive binding assay, OBP11 (SfurOBP11; ligand concentration 18, replicate 2): 18788
Fluorescence intensity, fluorescence competitive binding assay, OBP11 (SfurOBP11; ligand concentration 18, replicate 3): 18463
Fluorescence intensity, fluorescence competitive binding assay, OBP11 (SfurOBP11; ligand concentration 20, replicate 1): 17844
Fluorescence intensity, fluorescence competitive binding assay, OBP11 (SfurOBP11; ligand concentration 20, replicate 2): 18414
Fluorescence intensity, fluorescence competitive binding assay, OBP11 (SfurOBP11; ligand concentration 20, replicate 3): 17540
IC50 (SfurOBP2): > 20 µM
Fluorescence competitive binding assay, OBP2 (raw fluorescence reading) (SfurOBP2; ligand concentration 2 (unit not given), replicate column 1 of 3): 15507
Fluorescence competitive binding assay, OBP2 (raw fluorescence reading) (SfurOBP2; ligand concentration 2 (unit not given), replicate column 2 of 3): 14848
Fluorescence competitive binding assay, OBP2 (raw fluorescence reading) (SfurOBP2; ligand concentration 2 (unit not given), replicate column 3 of 3): 15027
Fluorescence competitive binding assay, OBP2 (raw fluorescence reading) (SfurOBP2; ligand concentration 4 (unit not given), replicate column 1 of 3): 14937
Fluorescence competitive binding assay, OBP2 (raw fluorescence reading) (SfurOBP2; ligand concentration 4 (unit not given), replicate column 2 of 3): 13962
Fluorescence competitive binding assay, OBP2 (raw fluorescence reading) (SfurOBP2; ligand concentration 4 (unit not given), replicate column 3 of 3): 14585
Fluorescence competitive binding assay, OBP2 (raw fluorescence reading) (SfurOBP2; ligand concentration 6 (unit not given), replicate column 1 of 3): 13559
Fluorescence competitive binding assay, OBP2 (raw fluorescence reading) (SfurOBP2; ligand concentration 6 (unit not given), replicate column 2 of 3): 14529
Fluorescence competitive binding assay, OBP2 (raw fluorescence reading) (SfurOBP2; ligand concentration 6 (unit not given), replicate column 3 of 3): 14868
Fluorescence competitive binding assay, OBP2 (raw fluorescence reading) (SfurOBP2; ligand concentration 8 (unit not given), replicate column 1 of 3): 13310
Fluorescence competitive binding assay, OBP2 (raw fluorescence reading) (SfurOBP2; ligand concentration 8 (unit not given), replicate column 2 of 3): 14622
Fluorescence competitive binding assay, OBP2 (raw fluorescence reading) (SfurOBP2; ligand concentration 8 (unit not given), replicate column 3 of 3): 14449
Fluorescence competitive binding assay, OBP2 (raw fluorescence reading) (SfurOBP2; ligand concentration 10 (unit not given), replicate column 1 of 3): 13559
Fluorescence competitive binding assay, OBP2 (raw fluorescence reading) (SfurOBP2; ligand concentration 10 (unit not given), replicate column 2 of 3): 13459
Fluorescence competitive binding assay, OBP2 (raw fluorescence reading) (SfurOBP2; ligand concentration 10 (unit not given), replicate column 3 of 3): 14101
Fluorescence competitive binding assay, OBP2 (raw fluorescence reading) (SfurOBP2; ligand concentration 12 (unit not given), replicate column 1 of 3): 13500
Fluorescence competitive binding assay, OBP2 (raw fluorescence reading) (SfurOBP2; ligand concentration 12 (unit not given), replicate column 2 of 3): 13742
Fluorescence competitive binding assay, OBP2 (raw fluorescence reading) (SfurOBP2; ligand concentration 12 (unit not given), replicate column 3 of 3): 13318
Fluorescence competitive binding assay, OBP2 (raw fluorescence reading) (SfurOBP2; ligand concentration 14 (unit not given), replicate column 1 of 3): 12764
Fluorescence competitive binding assay, OBP2 (raw fluorescence reading) (SfurOBP2; ligand concentration 14 (unit not given), replicate column 2 of 3): 13284
Fluorescence competitive binding assay, OBP2 (raw fluorescence reading) (SfurOBP2; ligand concentration 14 (unit not given), replicate column 3 of 3): 13618
Fluorescence competitive binding assay, OBP2 (raw fluorescence reading) (SfurOBP2; ligand concentration 16 (unit not given), replicate column 1 of 3): 12066
Fluorescence competitive binding assay, OBP2 (raw fluorescence reading) (SfurOBP2; ligand concentration 16 (unit not given), replicate column 2 of 3): 12546
Fluorescence competitive binding assay, OBP2 (raw fluorescence reading) (SfurOBP2; ligand concentration 16 (unit not given), replicate column 3 of 3): 12131
Fluorescence competitive binding assay, OBP2 (raw fluorescence reading) (SfurOBP2; ligand concentration 18 (unit not given), replicate column 1 of 3): 11847
Fluorescence competitive binding assay, OBP2 (raw fluorescence reading) (SfurOBP2; ligand concentration 18 (unit not given), replicate column 2 of 3): 12489
Fluorescence competitive binding assay, OBP2 (raw fluorescence reading) (SfurOBP2; ligand concentration 18 (unit not given), replicate column 3 of 3): 12075
Fluorescence competitive binding assay, OBP2 (raw fluorescence reading) (SfurOBP2; ligand concentration 20 (unit not given), replicate column 1 of 3): 11984
Fluorescence competitive binding assay, OBP2 (raw fluorescence reading) (SfurOBP2; ligand concentration 20 (unit not given), replicate column 2 of 3): 12356
Fluorescence competitive binding assay, OBP2 (raw fluorescence reading) (SfurOBP2; ligand concentration 20 (unit not given), replicate column 3 of 3): 11918
IC50 (SfurOBP3): > 20 µM
Fluorescence competitive binding assay, fluorescence intensity (SfurOBP3; ligand concentration 2): 45330 and 44709 and 45950
Fluorescence competitive binding assay, fluorescence intensity (SfurOBP3; ligand concentration 4): 42404 and 44063 and 46652
Fluorescence competitive binding assay, fluorescence intensity (SfurOBP3; ligand concentration 6): 42957 and 46006 and 45764
Fluorescence competitive binding assay, fluorescence intensity (SfurOBP3; ligand concentration 8): 41484 and 44807 and 44761
Fluorescence competitive binding assay, fluorescence intensity (SfurOBP3; ligand concentration 10): 42296 and 40919 and 43670
Fluorescence competitive binding assay, fluorescence intensity (SfurOBP3; ligand concentration 12): 40362 and 40474 and 40259
Fluorescence competitive binding assay, fluorescence intensity (SfurOBP3; ligand concentration 14): 36140 and 35545 and 34940
Fluorescence competitive binding assay, fluorescence intensity (SfurOBP3; ligand concentration 16): 32608 and 31985 and 31371
Fluorescence competitive binding assay, fluorescence intensity (SfurOBP3; ligand concentration 18): 31185 and 31705 and 30913
Fluorescence competitive binding assay, fluorescence intensity (SfurOBP3; ligand concentration 20): 30533 and 30370 and 31330
IC50 (SfurOBP1): > 20 µM
Fluorescence competitive binding assay, fluorescence intensity (SfurOBP1; ligand concentration 2 (μM)): 6748 and 7004 and 6492
Fluorescence competitive binding assay, fluorescence intensity (SfurOBP1; ligand concentration 4 (μM)): 7245 and 7115 and 7374
Fluorescence competitive binding assay, fluorescence intensity (SfurOBP1; ligand concentration 6 (μM)): 6061 and 6132 and 7040
Fluorescence competitive binding assay, fluorescence intensity (SfurOBP1; ligand concentration 8 (μM)): 7119 and 7198 and 8488
Fluorescence competitive binding assay, fluorescence intensity (SfurOBP1; ligand concentration 10 (μM)): 6689 and 6820 and 6663
Fluorescence competitive binding assay, fluorescence intensity (SfurOBP1; ligand concentration 12 (μM)): 6039 and 7567 and 5952
Fluorescence competitive binding assay, fluorescence intensity (SfurOBP1; ligand concentration 14 (μM)): 5985 and 6868 and 6969
Fluorescence competitive binding assay, fluorescence intensity (SfurOBP1; ligand concentration 16 (μM)): 5390 and 5637 and 6081
Fluorescence competitive binding assay, fluorescence intensity (SfurOBP1; ligand concentration 18 (μM)): 7493 and 9048 and 6239
Fluorescence competitive binding assay, fluorescence intensity (SfurOBP1; ligand concentration 20 (μM)): 8583 and 7861 and 5961
number of insects choosing hexane arm (S. furcifera adults): 10
number of insects choosing volatilies arm (S. furcifera adults): 7
number of insects failed (no choice) (S. furcifera adults): 23

From publication PMC6409085, “Three odorant-binding proteins are involved in the behavioral response of Sogatella furcifera to rice plant volatiles” (PeerJ, 2019)
